# In US11504399B2, “Combination therapy for a stable and long term engraftment using specific protocols for T/B cell depletion” (Yeda Research and Development Co. Ltd., priority 2011, dated 2022):
# Where two headings read alike, the source gives them in different places.
# What was measured:
# [1] = tested on: allogeneic recipients (C3H/Hen) of Balb/c-Nude BM cells; conditions: for donor type chimerism expressed: regular dose 5×10^6 T cell depleted BM, TCD, monohydrate
# Excerpt: Mice used in these studies were 6-12 week old female mice. Balb/c-Nude (H-2d) and C3H/Hen (H-2k) were purchased from Harlan Israel (Rehovot, Israel). All mice were kept in small cages (5 animals in each cage) and fed sterile food and acid water. These studies were approved by the Weizmann Institute of Science, Institutional Animal Care and Use Committee.
# (§1) Low (5×10^6) and high dose (25×10^6) Balb/c-Nude BM cells (providing a source of BM depleted of T cells) were transplanted into allogeneic recipients (C3H/Hen) on day 0 following in-vivo T cell debulking (TCD) with anti-CD4 (clone GK1.5) and anti-CD8 (clone 53.6.72) antibodies (300 μg each; Bio X Cell, NH, USA) delivered on day −6, and exposure to 2.0 Gy total body irradiation (TBI) on day −1. High dose Cyclophosphamide (CY, 100 mg/kg, Baxter Oncology, Germany) was administered on days +3 and +4 post transplant and donor type chimerism was evaluated 35 and 95 days post transplant using fluorescein anti-host and donor H-2 antibodies (e.g. FlTC labeled anti-H-2D^d antibody specific for donor type cells and PE labeled anti-H-2K^k antibody specific for host type cells).
# Recipient mice (C3H/Hen) were treated with a conditioning protocol prior to transplantation of a T cell depleted bone marrow transplant. Specifically, mice were in-vivo treated with T cell debulking (TCD) using anti-CD4 and anti-CD8 antibodies delivered on day −6 and by exposure to 2.0 Gy total body irradiation (TBI) on day −1. Next, low (5×10^6) or high dose (25×10^6) Balb/c-Nude BM cells (providing a source of BM depleted of T cells, as Nude mice have miniscule numbers of mature T cells) were transplanted into allogeneic recipients (C3H/Hen) on day 0. High dose cyclophosphamide (CY, 100 mg/kg) was administered on days +3 and +4 post transplant. Evaluation of bone marrow cell engraftment was evaluated by donor type chimerism at 35 and 95 days post transplant.
# as §1, with “High” for “Low (5×10^6) and high”, “different doses of irradiation ranging from 1 to 3.5” for “2.0”, “TBI” for “total body irradiation (TBI)”, “30” for “35 and 95”
# High dose Cyclophosphamide (CY) was administered on days +3 and +4 post transplant and donor type chimerism was evaluated at 30 days post transplant.
# as §1, with “High dose” for “Low (5×10^6) and high dose”, “−1. Different doses of” for “−1. High dose”, “mg/kg, 125 mg/kg or 150 mg/kg,” for “mg/kg,”, “Germany) were” for “Germany) was”, “evaluated 30” for “evaluated 35 and 95”
# [2] = tested on: C3H/Hen recipient mice with Balb/c and C57BL/6 skin grafts
# Method: Donor (Balb/c) and 3rd party (C57BL/6) skin grafts were transplanted to the mixed chimeric recipients as described above [i.e. to those mice which were previously transplanted with mega dose (25×10^6) T cell depleted BM and were treated with high dose CY] and to the recipient mice that were inoculated with a regular (5×10^6) T cell depleted BM cell dose and were treated with high dose CY.
# Tolerance induction was measured by transplantation of donor (Balb/c) and 3rd party (C57BL/6) skin grafts to the mixed chimeric recipients that were transplanted with mega dose (25×10^6) T cell depleted BM and were treated with high dose CY (as described above), in comparison to the recipients that were inoculated with a regular (5×10^6) T cell depleted BM cell dose (as described above).
structure (smiles),measurement,setting,value
"O.O=P1(N(CCCl)CCCl)NCCCO1 (stereo not drawn) [CY, 2-[bis(2-chloroethyl)amino]tetrahydro-2H-1,3,2-oxazaphosphorine 2-oxide monohydrate]",mixed chimerism,"[1]; 5×10^6 T cell depleted BM and CY, 180 and 225 days post transplant",did not exhibit mixed chimerism
same,percentage of chimeric mice,"[1]; 25×10^6 BM, 1.0 Gy TBI, CY 100 mg/kg days +3 and +4, 30 days post transplant (5/6)",83%
same,percentage of chimeric mice,"[1]; 25×10^6 BM, 2 Gy TBI, CY 100 mg/kg days +3 and +4, 30 days post transplant (13/15)",87%
same,chimeric recipient mice,"[1]; 25×10^6 BM, 2.5, 3 or 3.5 Gy TBI, CY 100 mg/kg days +3 and +4, 30 days post transplant",6/6
same,effect of depletion of CD8+ cells from the BM preparation on level of chimerism,"[1]; 25×10^6 CD8 depleted vs non-depleted Balb/c-Nude BM, 2 Gy TBI, CY 100 mg/kg days +3 and +4, 30 days",did not have any adverse impact
same,number of donor type chimeric recipients and level of donor chimerism,"[1]; 25×10^6 T cell depleted BM and CY, follow-up 180 and 225 days post transplant",remained unchanged
same,mice with durable mix chimerism,"[1]; 25×10^6 T cell depleted BM, TCD day −6, 2 Gy TBI day −1, CY 100 mg/kg days +3 and +4, day 35 and day 95",4 out of 7
same,effect of increasing CY dose on chimerism,"[1]; CY 125 mg/kg or 150 mg/kg compared to 100 mg/kg, 25×10^6 BM, 2 Gy TBI, 30 days",did not provide a significant enhancement of chimerism
same,donor type chimerism expressed,"[1]; 2 Gy TBI, CY 100 mg/kg days +3 and +4, day 35 and day 95, listed as cyclophosphamide",none
same,donor type chimerism expressed,"[1]; 2 Gy TBI, CY 100 mg/kg days +3 and +4, day 35 and day 95",did not exhibit donor type chimerism
same,skin graft outcome,[2]; 5×10^6 T cell depleted BM cells and CY,rejected both the donor and 3rd party skin grafts
same,chimeric mice that accepted the donor graft and rejected the 3rd party skin grafts,"[2]; 25×10^6 T cell depleted BM, high dose CY days +3 and +4",three out of 4
